Measured values published in patent US10851051B2, “Compositions and methods for treating multiple myeloma” (THE BROAD INSTITUTE, INC., priority 2015, dated 2020).
Entries after “also recorded” stand apart in the source; their conditions may differ.

Tests used:
[1] = tested on: MOLP5 cells; experiment: Growth inhibition of MOLP5 cells by BRD9647 analogs; format: cell-based; settings: FIG. 1E; for growth inhibition in MOLP5 cells compared with other analogs: various concentrations
Description: (§1) BRD9647 was identified in a phenotypic screening of multiple myeloma cells as a growth inhibitor of certain stroma-dependent myeloma cells. […] FIG. 1B is a plot showing viability of multiple myeloma cell lines (primary multiple myeloma (primary MM) cells (with stroma), MOLP5 (with stroma), and MM1S (with stroma)) treated with various concentrations of BRD9647. For these experiments GFP-labeled MOLP5 and MM1S cells were co-cultured with unlabeled primary human bone marrow stromal cells in 384-well plates and exposed to increasing concentrations of BRD9647 for 3 days. At the end of this period, wells were imaged in the GFP channel with the IXMicro automated high-throughput microscope (Molecular Devices), remaining GFP positive cells were quantified using the MetaXpress software (Molecular Devices) and expressed as percentages of DMSO (vehicle) controls. Unlabeled primary MM cells were similar treated with BRD9647 but were stained with the calcein-acetoxymethyl ester dye at the end of the treatment period. The dye fluoresces green inside viable cells that contain esterase enzymes. Viable cells were imaged and quantified similar to GFP-positive myeloma cell-lines using size, shape and staining intensity to distinguish primary MM from stromal cells. FIG. 1C depicts images showing the viability of primary MM and MOLP5 myeloma cell lines that received BRD9647 treatment in the presence and absence of stromal co-culture. […] Viable cells in these experiments after 3 days of compound exposure were measured using the Cell Titer Glo reagent (Promega).
Fluoro-benzoyl analogs of BRD9647 were synthesized and used to study the structure-function relationship between BRD9647 and each compound's ability to inhibit growth in MOLP5 cells. […] The BRD9647 analogs measured were either mono-fluorinated at the para (FIG. 1F), meta (FIG. 1G), or ortho (FIG. 1H) positions of the benzoyl ring, or tri-fluorinated at both meta positions and one ortho position of the ring (FIG. 1I). […]

[2] = tested on: MOLP5 cells; experiment: Spermidine rescue of growth inhibition in MOLP5 cells; format: cell-based; settings: MOLP5 + 10 or 100 μM spermidine, FIG. 7A
Method: MOLP5 cells with 100 μM spermidine (“MOLP5+100 μM Spd”), and MOLP5 cells with 10 μM spermidine (“MOLP5+10 μM Spd”), each.
Polyamines such as spermidine rescued the effects of BRD9647. FIG. 7B depicts the structure of spermidine. […] However, BRD9647 may be reactive with spermidine, as polyamines such as spermidine or spermine can directly react with BRD9647 via a benzoylation reaction (FIG. 7C) to form benzoylated polyamine products (FIG. 8 and FIG. 9).

[3] = tested on: stroma-dependent myeloma cells (primary MM, MOLP5); experiment: Viability of stroma-dependent myeloma cells co-cultured with bone marrow stromal cells (imaging, 3 days); format: cell-based; settings: primary MM and MOLP5, FIG. 1B-1C
Description: as §1, with “cells.” for “cells. FIG. 1C depicts images showing the viability of primary MM and MOLP5 myeloma cell lines that received BRD9647 treatment in the presence and absence of stromal co-culture.”

[4] = tested on: MOLP5 cells expressing AZIN1-WT; experiment: Viability of MOLP5 cells expressing wild-type AZIN1 under BRD9647; format: cell-based; settings: FIG. 4D, 5A; lentiviral AZIN1-WT
Description: MOLP5 cells sensitive to BRD9647 contained a mutation in AZIN1 (FIG. 4B). The mutation in AZIN1 was S367G. MOLP5 cells raised to be resistant to BRD9647 through serial exposures to increasing concentrations of BRD9647 over 3 months (MOLP5-R) lost the AZIN1 mutation that conferred sensitivity to BRD9647 (FIG. 4C). For experiments in FIGS. 4B and 4C, RNA was isolated from MOLP5 or MOLP5-R cells and converted into complementary DNA (cDNA). The AZIN1 polynucleotide was PCR amplified from cDNA then subject to Sanger sequencing. […] The growth of MOLP5 AZIN1-WT expressing cells in the presence of BRD9647 resembles the growth of untreated MOLP5 cells. For these experiments, lentiviral vectors (pLX_TRC304) encoding the AZIN1 open reading frame with the wild-type sequence or S367G mutant sequence and the puromycin resistance gene were transduced into MOLP5 cells which were then subjected to puromycin selection. […] A schematic of AZIN1 S367G's role in polyamine synthesis is shown at FIG. 6.

[5] = tested on: MOLP5 cells; experiment: Gene expression profiling of treated MOLP5 cells (microarray, GSEA); format: cell-based; settings: 10 μM, 6 hours
Method: Gene-expression analysis identified endoplasmic reticulum (ER) stress as an effect of BRD9647 in BRD9647-sensitive cells. […] For this experiment, MOLP5 cells were exposed to DMSO or 10 μM BRD9647 for 6 hours then subject to total RNA extraction using the TRIzol reagent (Thermo-Fisher). RNA was then hybridized to the Affymetrix U133 2.0 Plus oligonucleotide microarray (Affymetrix) and relative transcripts quantified following the manufacturer's protocol. Differential gene expression analysis was conducted using the Comparative Marker Selection module of GenePattern software (www.broadinstitute.org/genepattern). […] As show in FIG. 2C, Connectivity Map (CMap) analysis was conducted (www.broadinstitute.org/cmap) to compare a gene expression profile of […] with known gene expression profiles of over 5000 compounds to identify potential drugs showing a similar mechanism of action. Protein synthesis inhibitors of interest identified by the analysis are shown in boxes (FIG. 2C).

[6] = tested on: ~100 cell lines from the Broad Institute CTD2 Center; experiment: Viability of ~100 Broad CTD2 cell lines (Cell Titer Glo, 3 days); format: cell-based; settings: 3 days compound exposure, FIG. 1D
Description: as §1, with “cells.” for “cells. FIG. 1C depicts images showing the viability of primary MM and MOLP5 myeloma cell lines that received BRD9647 treatment in the presence and absence of stromal co-culture.”

[7] = tested on: benzoylated lysines on proteins; experiment: Immunoblot for benzoylated lysines (Kbz antibody) in treated cells; format: cell-based; settings: versus DMSO controls, FIG. 15
[8] = tested on: purified proteins (recombinant proteins, histones); experiment: Incubation of labeled compound with purified proteins (SDS-PAGE autoradiography, mass spectrometry); format: biochemical; settings: FIG. 12, 13
[9] = tested on: BRD9647-sensitive cells; experiment: Tracing of radiolabeled compound in cell extracts (TRIzol, TLC, protein extract); format: cell-based; settings: TRIzol or protein extract of treated cells, FIG. 10, 14
Method: FIG. 10 is a diagram showing results of a tracing experiment with a TRIzol treated extract of cells treated with 10 μM ^14C-BRD9647 for six hours.
In FIG. 14, the workflow and results of a ^14C-BRD9647 tracing experiment with protein extract from cells treated with ^14C-BRD9647 are shown.

COc1ccc(N(C(=O)c2cc(F)cc(F)c2F)S(=O)(=O)c2cc(OC)ccc2OC)cc1 [Compound 4]
growth inhibition in MOLP5 cells compared with other analogs [1]: all mono substituted analogs appear to inhibit growth substantially more than the tri-fluorinated analog

COc1ccc(N(C(=O)c2ccccc2)S(=O)(=O)c2cc(OC)ccc2OC)cc1 [BRD9647]
growth inhibition in presence of excess spermidine [2]: excess spermidine rescued BRD9647 growth inhibition | toxicity to myeloma cells with and without stromal co-culture [3]: selectively toxic to stroma-dependent myeloma cells | sensitivity of MOLP5 cells expressing wild-type AZIN1 [4]: wild-type AZIN1 expression in MOLP5 cells conferred resistance to BRD9647 | gene expression signature of treated cells [5]: under ER stress or amino acid deprivation | viability of cell line panel [6]: inhibited stroma-dependent multiple myeloma (MM) cells, but not most cell lines | benzoylated lysines in treated cells [7]: an increase in benzoylated lysines

COc1ccc(N(C(=O)c2ccccc2)S(=O)(=O)c2cc(OC)ccc2OC)cc1 [^14C-BRD9647]
covalent binding to purified proteins [8]: covalent binding of ^14C-BRD9647 with purified proteins was possible | protein binding in treated cells [9]: suggest protein binding or modification of proteins; also recorded: tight protein binding at ˜15 kD molecular weight

COc1ccc(N(C(=O)c2ccccc2)S(=O)(=O)c2cc(OC)ccc2OC)cc1 [^13C-BRD9647]
covalent binding to purified proteins [8]: identify labeled lysines

COc1ccc(N(C(=O)c2ccc(F)cc2)S(=O)(=O)c2cc(OC)ccc2OC)cc1 [Compound 1]
growth inhibitory activity in MOLP5 cells compared with BRD9647 ([1]; FIG. 3): similar, if not increased efficacy to BRD9647 | growth inhibition in MOLP5 cells compared with other analogs [1]: increased growth inhibition at each concentration of active over m-fluorobenzoyl (zb-179-2) or o-fluorobenzoyl analogs (zb-16-14)
